Consider eight compounds from the GenesisPotency data set.

Assay [1] addresses T1, Mitogen-activated protein kinase kinase kinase 7/TGF-beta-activated kinase 1 and MAP3K7-binding protein 1, Homo sapiens (UniProt O43318+Q15750).
T1 sequence (whole entry): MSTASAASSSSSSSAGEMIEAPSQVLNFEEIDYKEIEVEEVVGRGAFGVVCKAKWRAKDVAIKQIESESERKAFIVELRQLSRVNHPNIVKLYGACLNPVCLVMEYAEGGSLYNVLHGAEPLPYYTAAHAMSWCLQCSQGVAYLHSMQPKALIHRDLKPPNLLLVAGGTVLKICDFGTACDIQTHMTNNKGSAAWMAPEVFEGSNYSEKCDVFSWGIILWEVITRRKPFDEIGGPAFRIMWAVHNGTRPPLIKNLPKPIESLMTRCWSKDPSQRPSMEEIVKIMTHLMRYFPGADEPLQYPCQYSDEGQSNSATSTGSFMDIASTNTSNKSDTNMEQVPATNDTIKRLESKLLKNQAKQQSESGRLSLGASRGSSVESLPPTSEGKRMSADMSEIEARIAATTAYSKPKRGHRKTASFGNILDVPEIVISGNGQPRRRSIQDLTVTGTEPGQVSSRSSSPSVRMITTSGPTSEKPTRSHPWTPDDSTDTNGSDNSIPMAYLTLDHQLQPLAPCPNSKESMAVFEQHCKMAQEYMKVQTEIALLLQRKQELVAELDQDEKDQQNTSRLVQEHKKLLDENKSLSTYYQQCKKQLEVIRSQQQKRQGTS

The target in assay [2] is T2, Muscarinic acetylcholine receptor M5, Homo sapiens (UniProt P08912).
T2 sequence (whole entry): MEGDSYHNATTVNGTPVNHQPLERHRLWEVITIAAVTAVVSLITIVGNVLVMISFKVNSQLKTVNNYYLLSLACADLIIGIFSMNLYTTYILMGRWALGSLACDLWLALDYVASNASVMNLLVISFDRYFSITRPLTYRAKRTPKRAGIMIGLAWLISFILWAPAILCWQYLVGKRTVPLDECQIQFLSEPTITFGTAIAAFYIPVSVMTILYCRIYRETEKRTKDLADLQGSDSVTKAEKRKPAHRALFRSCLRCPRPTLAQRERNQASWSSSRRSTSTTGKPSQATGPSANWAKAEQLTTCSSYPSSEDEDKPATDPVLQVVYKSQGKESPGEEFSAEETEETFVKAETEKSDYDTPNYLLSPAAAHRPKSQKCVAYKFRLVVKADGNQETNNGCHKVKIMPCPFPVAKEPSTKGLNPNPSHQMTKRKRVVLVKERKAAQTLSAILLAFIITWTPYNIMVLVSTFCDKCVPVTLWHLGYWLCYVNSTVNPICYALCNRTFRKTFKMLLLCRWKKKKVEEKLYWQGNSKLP

For assay [3], the target named is Delta-type opioid receptor, Mus musculus (UniProt P32300).
Delta-type opioid receptor, Mus musculus, sequence (P32300 whole entry): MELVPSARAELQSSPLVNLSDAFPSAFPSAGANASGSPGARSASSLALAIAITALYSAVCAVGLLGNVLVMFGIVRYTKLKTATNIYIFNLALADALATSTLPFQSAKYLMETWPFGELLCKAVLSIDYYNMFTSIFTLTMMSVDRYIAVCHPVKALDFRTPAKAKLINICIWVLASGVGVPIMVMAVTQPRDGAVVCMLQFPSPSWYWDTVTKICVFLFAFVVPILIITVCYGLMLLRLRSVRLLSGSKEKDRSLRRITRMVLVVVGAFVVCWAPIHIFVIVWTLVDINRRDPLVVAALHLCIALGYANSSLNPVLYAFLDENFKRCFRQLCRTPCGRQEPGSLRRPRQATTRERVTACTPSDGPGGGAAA
The target of assay [4] is Carbonic anhydrase 2, Homo sapiens (UniProt P00918).
For assay [5], the target named is T3, Glycylpeptide N-tetradecanoyltransferase, Trypanosoma brucei brucei (strain 927/4 GUTat10.1) (UniProt Q388H8).
T3 sequence (whole entry): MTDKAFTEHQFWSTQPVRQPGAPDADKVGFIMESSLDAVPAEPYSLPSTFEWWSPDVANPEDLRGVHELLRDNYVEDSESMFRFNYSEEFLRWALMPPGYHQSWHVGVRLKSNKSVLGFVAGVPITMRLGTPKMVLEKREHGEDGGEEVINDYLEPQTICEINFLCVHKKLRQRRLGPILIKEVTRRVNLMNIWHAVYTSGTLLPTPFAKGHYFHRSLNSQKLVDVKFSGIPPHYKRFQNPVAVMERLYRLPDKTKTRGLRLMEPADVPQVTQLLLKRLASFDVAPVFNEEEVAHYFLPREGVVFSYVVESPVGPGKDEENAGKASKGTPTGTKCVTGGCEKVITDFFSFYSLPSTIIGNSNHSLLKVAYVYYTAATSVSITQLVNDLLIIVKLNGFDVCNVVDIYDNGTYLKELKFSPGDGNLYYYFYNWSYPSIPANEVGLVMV

For assay [6], the target named is Inositol hexakisphosphate kinase 1, Homo sapiens (UniProt Q92551).
Inositol hexakisphosphate kinase 1, Homo sapiens, sequence (Q92551 whole entry, looked up): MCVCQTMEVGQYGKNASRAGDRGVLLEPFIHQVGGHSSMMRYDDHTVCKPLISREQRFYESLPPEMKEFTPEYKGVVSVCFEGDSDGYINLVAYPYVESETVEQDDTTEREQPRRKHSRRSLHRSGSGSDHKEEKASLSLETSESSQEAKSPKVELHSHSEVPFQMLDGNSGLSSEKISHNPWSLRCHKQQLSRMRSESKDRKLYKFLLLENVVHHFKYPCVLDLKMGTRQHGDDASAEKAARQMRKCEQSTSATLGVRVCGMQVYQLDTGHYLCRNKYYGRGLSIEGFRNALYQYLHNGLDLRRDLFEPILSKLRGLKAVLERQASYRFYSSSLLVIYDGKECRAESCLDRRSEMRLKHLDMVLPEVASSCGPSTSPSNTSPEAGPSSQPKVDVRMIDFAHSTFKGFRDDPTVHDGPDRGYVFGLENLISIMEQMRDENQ
The target in assay [7] is T4, Carbonic anhydrase, Pseudomonas aeruginosa (strain ATCC 15692 / DSM 22644 / CIP 104116 / JCM 14847 / LMG 12228 / 1C / PRS 101 / PAO1) (UniProt Q9HVB9).
T4 sequence (whole entry): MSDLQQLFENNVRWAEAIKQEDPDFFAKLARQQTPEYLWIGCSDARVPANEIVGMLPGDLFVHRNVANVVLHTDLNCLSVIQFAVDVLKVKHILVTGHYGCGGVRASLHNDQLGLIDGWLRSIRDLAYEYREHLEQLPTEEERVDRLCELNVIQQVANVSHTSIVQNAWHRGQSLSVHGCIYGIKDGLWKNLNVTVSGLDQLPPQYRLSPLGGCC

Assay [8] has as its target T5, Carbonic anhydrase, Methanosarcina thermophila (strain ATCC 43570 / DSM 1825 / OCM 12 / VKM B-1830 / TM-1) (UniProt P40881).
T5 sequence (whole entry): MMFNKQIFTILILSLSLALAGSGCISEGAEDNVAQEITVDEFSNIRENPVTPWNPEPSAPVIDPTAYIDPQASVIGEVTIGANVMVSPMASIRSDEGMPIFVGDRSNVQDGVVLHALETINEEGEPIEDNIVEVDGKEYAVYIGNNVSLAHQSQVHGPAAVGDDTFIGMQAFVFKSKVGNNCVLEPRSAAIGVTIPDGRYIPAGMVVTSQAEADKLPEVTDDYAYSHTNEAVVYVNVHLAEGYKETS

Assay [9] deals with Carbonic anhydrase 2, Homo sapiens (UniProt P00918). The source holds these as a separate data set.

Molecules are shown by their SMILES. pIC50, pKi: −log10 of the molar value.

Compound `O=C1CSC(/N=N/c2c(O)[nH]c3ccccc23)=N1` gave a pIC50 in [1] of less than 5.30.

Consider `O=c1c(OC2C(O)OC(CO)C(O)C2O)c(-c2ccc(O)c(O)c2)oc2cc(O)cc(O)c12` (stereo not given), for which, in [2], the pKi was less than 5.00.

Regarding `COc1cc2c(c(OC)c1OC)-c1cc3c(cc1C(=O)[C@@H]1COC(=O)[C@H]1C2)OCO3`, in [3], the pIC50 was less than 5.00.

In assay [4], `CC(C)[C@H]1NC(=O)[C@@H](C)[C@@H](CC=CCCC(=O)O)NC(=O)[C@@H](Cc2ccc(O)cc2)NC(=O)[C@@H](C)NC1=O` had a negative logarithm of the Ki (pKi) of less than 5.00.

As to `Cc1nn(C)c(C)c1N[SH+]([O-])c1c(Cl)cc(-c2ccc(OC(F)(F)F)cc2)cc1-c1ccc(OC(F)(F)F)cc1` (stereo not given), the negative logarithm of the IC50 (pIC50) in [5] is less than 4.00.

With `O=[N+](O)c1ccc(CNc2nc(NCc3cccc(C(F)(F)F)c3)nc3[nH]cnc23)cc1`, the pIC50 in assay [6] was more than 3.70.

Turning to `C=CC(=O)Nc1ccc(Cn2nc(-c3ccc4[nH]c(C)nc4c3)c3c(N)ncnc32)cc1`, the pKi in assay [7] is less than 1.00; in [8], less than 0.70; in [9] it was less than 0.70.

`CC(C)[C@H]1NC(=O)[C@@H](C)[C@@H](CC=CCCC(N)=O)NC(=O)[C@@H](Cc2ccc(O)cc2)NC(=O)[C@@H](C)NC1=O` gave a negative logarithm of the Ki (pKi) in assay [4] of less than 5.00.
